pIC50: −log10 of the molar value.
Key:
Cytochrome P450 2C9 = Cytochrome P450 2C9 (Homo sapiens, UniProt P11712); conditions: bti-tn-5b1-4; also: in other assays of this panel Not Active means under 50% inhibition at 10 µM
[1] = molecular target: T1, Muscarinic acetylcholine receptor M5 (Homo sapiens, UniProt P08912); assay type: cell membranes, CHO-K1, Membrane; conditions: cho-k1; also: in other assays of this panel Not Active means under 50% inhibition at 10 µM
T1 sequence (P08912 whole entry): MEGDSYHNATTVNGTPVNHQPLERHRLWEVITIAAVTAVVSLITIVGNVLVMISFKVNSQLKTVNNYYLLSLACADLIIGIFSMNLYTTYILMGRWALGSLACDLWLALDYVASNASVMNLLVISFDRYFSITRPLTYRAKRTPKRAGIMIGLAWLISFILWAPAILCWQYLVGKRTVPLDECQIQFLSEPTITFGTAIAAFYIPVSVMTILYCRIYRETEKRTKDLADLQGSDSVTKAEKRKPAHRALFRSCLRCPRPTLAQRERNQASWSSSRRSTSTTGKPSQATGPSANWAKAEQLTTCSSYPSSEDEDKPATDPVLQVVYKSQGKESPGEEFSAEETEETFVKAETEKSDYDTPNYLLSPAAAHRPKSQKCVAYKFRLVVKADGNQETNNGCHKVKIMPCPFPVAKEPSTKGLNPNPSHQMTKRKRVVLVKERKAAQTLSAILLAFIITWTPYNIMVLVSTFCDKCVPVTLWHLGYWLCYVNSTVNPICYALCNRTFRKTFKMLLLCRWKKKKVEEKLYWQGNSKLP

Glycine receptor = Glycine receptor (Rattus norvegicus, UniProt P22771+P24524+P07727+P20781); assay type: cell membranes, Wistar, Spinal cord, Membrane; also: in other assays of this panel Not Active means under 50% inhibition at 10 µM
Carbonic anhydrase 2 = Carbonic anhydrase 2 (Homo sapiens, UniProt P00918); test: DRUGMATRIX: Carbonic Anhydrase II enzyme inhibition (substrate: 4-Nitrophenyl acetate (4-NPA)); assay type: tissue-based, Erythrocyte; conditions: Not Active = under 50% inhibition at 10 µM; for IC50: erythrocyte
Glucocorticoid receptor = molecular target: T2, Glucocorticoid receptor (Homo sapiens, UniProt P04150); conditions: hela s3; also: in other assays of this panel Not Active means under 50% inhibition at 10 µM
T2 sequence (P04150 whole entry): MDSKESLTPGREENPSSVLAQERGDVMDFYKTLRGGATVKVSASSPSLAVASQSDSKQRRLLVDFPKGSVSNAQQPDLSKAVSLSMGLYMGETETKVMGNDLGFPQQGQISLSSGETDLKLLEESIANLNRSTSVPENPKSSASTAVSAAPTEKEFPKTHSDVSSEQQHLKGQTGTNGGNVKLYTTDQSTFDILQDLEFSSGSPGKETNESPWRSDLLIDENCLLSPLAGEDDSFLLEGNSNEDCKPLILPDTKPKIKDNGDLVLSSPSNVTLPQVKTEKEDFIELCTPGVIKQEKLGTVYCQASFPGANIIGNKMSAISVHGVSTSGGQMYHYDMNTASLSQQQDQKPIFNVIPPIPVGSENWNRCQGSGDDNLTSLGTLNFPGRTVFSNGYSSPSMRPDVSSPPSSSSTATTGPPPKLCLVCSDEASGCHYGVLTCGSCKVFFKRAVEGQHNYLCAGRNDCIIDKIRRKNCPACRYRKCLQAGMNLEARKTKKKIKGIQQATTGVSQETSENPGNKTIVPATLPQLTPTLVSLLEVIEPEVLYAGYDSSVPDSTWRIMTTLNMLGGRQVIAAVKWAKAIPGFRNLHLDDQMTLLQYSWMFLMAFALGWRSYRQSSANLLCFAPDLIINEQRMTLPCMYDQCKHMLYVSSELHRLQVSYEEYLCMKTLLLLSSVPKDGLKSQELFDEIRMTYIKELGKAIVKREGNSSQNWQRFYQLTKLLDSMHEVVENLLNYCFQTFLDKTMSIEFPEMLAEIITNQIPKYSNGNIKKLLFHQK

[2] = molecular target: 5-hydroxytryptamine receptor 1B (Rattus norvegicus, UniProt P28564); assay type: cell membranes, Wistar, Cerebral cortex, Membrane; also: in other assays of this panel Not Active means under 50% inhibition at 10 µM
5-hydroxytryptamine receptor 1B, sequence (P28564 whole entry): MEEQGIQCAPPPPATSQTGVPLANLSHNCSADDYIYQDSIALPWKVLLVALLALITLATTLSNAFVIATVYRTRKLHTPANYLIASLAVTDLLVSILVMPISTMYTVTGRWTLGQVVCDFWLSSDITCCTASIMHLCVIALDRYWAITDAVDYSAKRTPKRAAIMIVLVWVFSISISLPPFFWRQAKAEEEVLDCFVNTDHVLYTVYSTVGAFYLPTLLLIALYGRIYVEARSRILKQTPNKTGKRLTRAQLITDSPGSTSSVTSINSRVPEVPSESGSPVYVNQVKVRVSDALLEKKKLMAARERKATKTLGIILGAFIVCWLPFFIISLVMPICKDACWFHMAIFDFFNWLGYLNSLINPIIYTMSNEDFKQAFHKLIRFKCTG

[3] = molecular target: T3, Alpha-2C adrenergic receptor (Homo sapiens, UniProt P18825); test: DRUGMATRIX: Adrenergic Alpha-2C radioligand binding (ligand: [3H] MK-912); assay type: cell membranes, Sf9, Membrane; conditions: sf9
T3 sequence (P18825 whole entry): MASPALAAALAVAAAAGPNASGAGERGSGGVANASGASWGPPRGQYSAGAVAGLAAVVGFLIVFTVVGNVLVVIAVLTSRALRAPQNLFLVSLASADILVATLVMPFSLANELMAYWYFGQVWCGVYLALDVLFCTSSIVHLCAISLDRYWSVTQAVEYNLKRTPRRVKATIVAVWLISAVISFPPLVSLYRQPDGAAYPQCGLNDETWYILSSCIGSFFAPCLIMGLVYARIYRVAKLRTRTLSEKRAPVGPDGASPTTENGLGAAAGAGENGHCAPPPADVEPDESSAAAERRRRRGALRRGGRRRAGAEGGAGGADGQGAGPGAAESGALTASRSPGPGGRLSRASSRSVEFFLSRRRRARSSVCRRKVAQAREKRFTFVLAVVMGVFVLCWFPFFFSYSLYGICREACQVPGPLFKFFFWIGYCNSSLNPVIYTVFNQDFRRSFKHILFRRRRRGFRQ

Mu-type opioid receptor = Mu-type opioid receptor (Homo sapiens, UniProt P35372); test: DRUGMATRIX: Opiate mu (OP3, MOP) radioligand binding (ligand: [3H] Diprenorphine); assay type: cell membranes, CHO-K1, Membrane; conditions: cho-k1; Not Active = under 50% inhibition at 10 µM
Mu-type opioid receptor, sequence (P35372 whole entry): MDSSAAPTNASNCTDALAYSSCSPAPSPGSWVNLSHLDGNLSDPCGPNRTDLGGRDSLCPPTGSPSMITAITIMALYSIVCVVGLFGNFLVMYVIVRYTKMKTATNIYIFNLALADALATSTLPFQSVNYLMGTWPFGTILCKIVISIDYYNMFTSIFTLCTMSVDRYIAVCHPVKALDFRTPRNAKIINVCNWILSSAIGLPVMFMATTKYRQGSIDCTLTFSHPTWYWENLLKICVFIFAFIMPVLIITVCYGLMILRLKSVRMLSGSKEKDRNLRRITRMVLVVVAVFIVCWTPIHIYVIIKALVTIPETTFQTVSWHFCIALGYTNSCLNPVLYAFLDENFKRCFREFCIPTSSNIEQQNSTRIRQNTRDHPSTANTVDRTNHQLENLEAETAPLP

Nitric oxide synthase 1 = Nitric oxide synthase 1 (Rattus norvegicus, UniProt P29476); assay type: tissue-based, Cerebellum; also: in other assays of this panel Not Active means under 50% inhibition at 10 µM
Nitric oxide synthase 1, sequence (P29476 whole entry): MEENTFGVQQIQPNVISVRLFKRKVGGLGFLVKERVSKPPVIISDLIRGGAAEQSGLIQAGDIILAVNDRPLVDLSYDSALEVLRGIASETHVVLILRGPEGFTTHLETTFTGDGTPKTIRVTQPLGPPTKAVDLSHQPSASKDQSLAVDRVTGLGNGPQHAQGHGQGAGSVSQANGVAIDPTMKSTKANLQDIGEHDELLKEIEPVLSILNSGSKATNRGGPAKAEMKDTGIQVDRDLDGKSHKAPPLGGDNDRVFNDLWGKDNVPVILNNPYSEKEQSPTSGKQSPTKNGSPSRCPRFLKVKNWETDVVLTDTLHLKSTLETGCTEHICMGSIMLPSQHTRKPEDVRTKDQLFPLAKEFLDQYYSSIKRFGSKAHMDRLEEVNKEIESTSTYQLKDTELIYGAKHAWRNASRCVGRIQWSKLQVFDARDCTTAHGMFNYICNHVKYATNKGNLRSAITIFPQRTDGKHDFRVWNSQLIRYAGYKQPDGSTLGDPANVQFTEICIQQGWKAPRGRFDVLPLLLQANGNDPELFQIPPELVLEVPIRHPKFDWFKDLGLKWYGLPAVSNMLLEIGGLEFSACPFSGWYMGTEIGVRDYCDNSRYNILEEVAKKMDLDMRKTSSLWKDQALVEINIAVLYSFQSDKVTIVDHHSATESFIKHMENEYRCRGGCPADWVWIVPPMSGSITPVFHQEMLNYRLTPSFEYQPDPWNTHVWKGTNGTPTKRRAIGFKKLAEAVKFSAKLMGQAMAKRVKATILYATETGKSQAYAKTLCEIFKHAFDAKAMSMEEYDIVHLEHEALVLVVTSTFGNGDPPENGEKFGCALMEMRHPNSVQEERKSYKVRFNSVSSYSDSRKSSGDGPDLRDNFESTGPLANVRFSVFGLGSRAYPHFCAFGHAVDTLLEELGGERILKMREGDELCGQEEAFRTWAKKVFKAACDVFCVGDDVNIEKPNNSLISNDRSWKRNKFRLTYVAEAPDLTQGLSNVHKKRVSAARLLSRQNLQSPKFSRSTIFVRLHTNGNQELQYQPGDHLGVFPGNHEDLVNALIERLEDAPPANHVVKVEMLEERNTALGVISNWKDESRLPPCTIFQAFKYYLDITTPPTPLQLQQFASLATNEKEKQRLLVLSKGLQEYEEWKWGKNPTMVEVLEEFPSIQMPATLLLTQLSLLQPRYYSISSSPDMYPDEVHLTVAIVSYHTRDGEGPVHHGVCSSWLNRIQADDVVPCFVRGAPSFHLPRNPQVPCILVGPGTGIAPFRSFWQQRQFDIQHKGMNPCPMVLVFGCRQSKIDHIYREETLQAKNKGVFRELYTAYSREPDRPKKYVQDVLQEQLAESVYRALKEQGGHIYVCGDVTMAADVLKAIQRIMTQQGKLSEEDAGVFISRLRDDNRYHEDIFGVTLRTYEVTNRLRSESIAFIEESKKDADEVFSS

[4] = molecular target: T4, Type-2 angiotensin II receptor (Homo sapiens, UniProt P50052); assay type: cell-based; conditions: cho-k1; also: in other assays of this panel Not Active means under 50% inhibition at 10 µM
T4 sequence (P50052 whole entry): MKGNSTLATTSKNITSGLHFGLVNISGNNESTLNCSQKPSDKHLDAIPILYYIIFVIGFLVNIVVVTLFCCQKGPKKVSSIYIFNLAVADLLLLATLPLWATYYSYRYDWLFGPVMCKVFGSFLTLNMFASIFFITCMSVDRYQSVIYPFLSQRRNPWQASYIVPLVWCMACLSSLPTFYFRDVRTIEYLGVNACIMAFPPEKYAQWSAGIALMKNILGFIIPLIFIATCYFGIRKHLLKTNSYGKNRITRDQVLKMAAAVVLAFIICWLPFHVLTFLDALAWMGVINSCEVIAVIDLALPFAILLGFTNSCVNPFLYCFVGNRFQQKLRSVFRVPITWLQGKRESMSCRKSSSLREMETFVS

Cytochrome P450 2C9, sequence (P11712 whole entry): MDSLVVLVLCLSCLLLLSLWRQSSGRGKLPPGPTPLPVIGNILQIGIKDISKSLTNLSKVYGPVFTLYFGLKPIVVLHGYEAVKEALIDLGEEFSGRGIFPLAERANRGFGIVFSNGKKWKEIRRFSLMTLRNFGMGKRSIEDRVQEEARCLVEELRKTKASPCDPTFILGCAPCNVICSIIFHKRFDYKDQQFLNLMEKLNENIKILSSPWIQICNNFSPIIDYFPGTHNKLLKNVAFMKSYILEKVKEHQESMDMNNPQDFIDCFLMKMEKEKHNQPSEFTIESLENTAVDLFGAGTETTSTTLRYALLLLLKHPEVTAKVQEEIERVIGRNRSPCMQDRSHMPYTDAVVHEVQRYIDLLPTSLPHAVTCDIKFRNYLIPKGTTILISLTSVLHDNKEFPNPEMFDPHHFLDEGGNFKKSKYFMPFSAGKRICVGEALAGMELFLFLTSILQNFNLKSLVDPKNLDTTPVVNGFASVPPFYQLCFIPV

SMILES	IC50 (Cytochrome P450 2C9)	Ki (Cytochrome P450 2C9)	IC50 [1]	IC50 (Glycine receptor)	IC50 (Carbonic anhydrase 2)	IC50 (Glucocorticoid receptor)	IC50 [2]	IC50 [3]	IC50 (Mu-type opioid receptor)	IC50 (Nitric oxide synthase 1)	IC50 [4]	pIC50 (Carbonic anhydrase 2; read-out: IC50)
Cc1cccc(Nc2ccncc2S(=O)(=O)NC(=O)NC(C)C)c1 [TORSEMIDE]	Not Active	Not Active	Not Active	Not Active	Not Active	Not Active	Not Active	Not Active	Not Active	Not Active	Not Active	–
[Cl-].[Cl-].[Zn+2] [ZINC CHLORIDE]	Not Active	Not Active	Not Active	Not Active	–	Not Active	Not Active	Not Active	Not Active	Not Active	Not Active	5.94
CN1C(C(=O)Nc2ccccn2)=C(O)c2sccc2S1(=O)=O [TENOXICAM]	Not Active	Not Active	Not Active	Not Active	Not Active	Not Active	Not Active	Not Active	Not Active	Not Active	Not Active	–
CC(=O)N[C@@H]1[C@H](Oc2c3cc4cc2Oc2ccc(cc2Cl)[C@@H](O[C@@H]2O[C@@H](CO)[C@@H](O)[C@H](O)[C@@H]2NC(C)=O)[C@@H]2NC(=O)[C@H](NC(=O)[C@@H]4NC(=O)[C@H]4NC(=O)[C@@H](Cc5ccc(c(Cl)c5)O3)NC(=O)[C@H](N)c3ccc(O)c(c3)Oc3cc(O)cc4c3)c3ccc(O)c(c3)-c3c(O[C@H]4O[C@H](CO)[C@@H](O)[C@@H](O)[C@@H]4O)cc(O)cc3[C@@H](C(=O)O)NC2=O)O[C@@H](CO)[C@@H](O)[C@@H]1O	Not Active	Not Active	Not Active	Not Active	Not Active	Not Active	Not Active	Not Active	Not Active	Not Active	Not Active	–
O=C1CCC(N2C(=O)c3ccccc3C2=O)C(=O)N1 (stereo not drawn) [THALIDOMIDE]	Not Active	Not Active	Not Active	Not Active	Not Active	Not Active	Not Active	Not Active	Not Active	Not Active	Not Active	–
CC[C@]1(O)C[C@@H]2CN(CCc3c([nH]c4ccccc34)[C@@](C(=O)OC)(c3cc4c(cc3OC)N(C)[C@H]3[C@@](O)(C(=O)OC)[C@H](OC(C)=O)[C@]5(CC)C=CCN6CC[C@]43[C@@H]65)C2)C1 [VINBLASTINE]	Not Active	Not Active	Not Active	Not Active	Not Active	Not Active	Not Active	Not Active	Not Active	Not Active	Not Active	–
CC1=C(CC(=O)O)c2cc(F)ccc2/C1=C\c1ccc([S+](C)[O-])cc1 (stereo not drawn)	Not Active	Not Active	Not Active	Not Active	Not Active	Not Active	Not Active	Not Active	Not Active	Not Active	Not Active	–
CC(C)C[C@H](NC(=O)[C@@H](O)[C@H](N)Cc1ccccc1)C(=O)O [UBENIMEX]	Not Active	Not Active	Not Active	Not Active	Not Active	Not Active	Not Active	Not Active	Not Active	Not Active	Not Active	–
COCCCOc1ccnc(C[S+]([O-])c2nc3ccccc3[nH]2)c1C (stereo not drawn) [RABEPRAZOLE]	Not Active	Not Active	Not Active	Not Active	Not Active	Not Active	Not Active	Not Active	Not Active	Not Active	Not Active	–
N[C@H](CSC(=S)NCc1ccccc1)C(=O)O	Not Active	Not Active	Not Active	Not Active	Not Active	Not Active	Not Active	Not Active	Not Active	Not Active	Not Active	–
[H]/N=C(/N)N[C@H]1[C@H](O)[C@@H](O)[C@H](O[C@@H]2O[C@@H](C)[C@](O)(C=O)[C@H]2O[C@@H]2O[C@@H](CO)[C@H](O)[C@@H](O)[C@@H]2NC)[C@@H](N/C(N)=N\[H])[C@@H]1O [STREPTOMYCIN]	Not Active	Not Active	Not Active	Not Active	Not Active	Not Active	Not Active	Not Active	Not Active	Not Active	Not Active	–
CO[C@H]1/C=C/O[C@@]2(C)Oc3c(C)c(O)c4c(c3C2=O)C2=NC3(CCN(CC(C)C)CC3)NC2=C(NC(=O)/C(C)=C\C=C\[C@H](C)[C@H](O)[C@@H](C)[C@@H](O)[C@@H](C)[C@H](OC(C)=O)[C@@H]1C)C4=O [RIFABUTIN]	Not Active	Not Active	Not Active	Not Active	Not Active	Not Active	Not Active	Not Active	Not Active	Not Active	Not Active	–
C[C@@H](N)[C@H]1CC[C@H](C(=O)Nc2ccncc2)CC1 [Y-27632]	Not Active	Not Active	Not Active	Not Active	Not Active	Not Active	Not Active	Not Active	Not Active	Not Active	Not Active	–
